For experiment [1], the system named is NCI-H1975. The experiment can be described thus: Antiproliferative activity against human NCI-H1975 cells harboring EGFR L858R/T790M double mutant after 72 hrs by MTT assay. The class given is functional, cell-based. As to conditions: NCI-H1975, 72 h. On the technique in general: Tetrazolium assays rely on reduction of a dye to a coloured formazan, in cell work by metabolically active cells.

The subject of experiment [2] is MDA-MB-231. Put plainly: Antiproliferative activity against human MDA-MB-231 cells after 72 hrs by MTT assay. As to conditions: MDA-MB-231, 72 h. The format is functional, cell-based.
Experiment [3] can be described thus: Antiproliferative activity against human BxPC3 cells after 72 hrs by MTT assay. Conditions: BXPC-3, 72 h. The format is functional, cell-based.
Experiment [4] can be described thus: Antiproliferative activity against human PC3 cells after 72 hrs by MTT assay. The format is functional, cell-based. As to conditions: PC-3, 72 h.
A short description of experiment [5]: Antiproliferative activity against human Caki2 cells after 72 hrs by MTT assay. The class given is functional, cell-based. Conditions: CAKI-2, 72 h.
The test system of experiment [6] is PBMC. Put plainly: Hematotoxicity in human PHA/IL2-stimulated PBMC. The format is cell-based.

For `Cc1nc(Nc2ncc(C(=O)Nc3c(C)cccc3Cl)s2)cc(N2CCN(CCO)CC2)n1` [DASATINIB], the EC50 (usually the concentration that produces a half-maximal response) in experiment [1] amounted to 173 nM; in experiment [2], 44 nM; in experiment [3], 33 nM; in experiment [4] it was 232 nM; in experiment [5] it was 55 nM; in experiment [6], 1600 nM.

Values taken from ChEMBL document CHEMBL3808348, “Rational Design, Synthesis, and Biological Evaluation of 7-Azaindole Derivatives as Potent Focused Multi-Targeted Kinase Inhibitors” (J Med Chem, 2016).
